The conditions of data set [1]: rcm bond, Hoveyda-Grubbs 1st generation catalyst, 1,2-dichloroethane, 70.0 °C.
Data set [2] has as its target T1, HCV NS3/4A protease complexes (full-length hepatitis C NS3 protease enzyme with NS4A cofactor) (Hepatitis C virus genotype 1a, UniProt P27958).
T1 construct: full-length hepatitis C NS3 protease enzyme
As to the kind of experiment: Inhibition assay (enzymatic assay, depsipeptide substrate hydrolysis). Type of data set: biochemical. The conditions noted are these: enzyme 1 nM, 25 μM NS4A cofactor, 0.5 μM substrate, 30° C., pH 7.5, model for competitive inhibition. How it is done: [Landro, 1997 #Biochem 36 9340-9348]. […] The solutions were stored at −20° C. between measurements.
[Liu, 1999 Analytical Biochemistry 267 331-335].

For data set [3], the system named is HCV replicons (HCV type 1b, Huh-7 luc/neo cells). As to the kind of experiment: Replicon assay (Huh-Luc cells, luciferase read-out). The conditions noted are these: Hepatitis C virus, Huh-7, 72 h. It is filed as cell-based. The source says:
The compounds of formula (I) were examined for activity in the inhibition of HCV RNA replication in a cellular assay. […] The cellular assay was based on a bicistronic expression construct, as described by Lohmann et al. (1999) Science vol. 285 pp. 110-113 with modifications described by Krieger et al. (2001) Journal of Virology 75: 4614-4624, in a multi-target screening strategy. In essence, the method was as follows.
The assay utilized the stably transfected cell line Huh-7 luc/neo (hereafter referred to as Huh-Luc). This cell line harbors an RNA encoding a bicistronic expression construct comprising the wild type NS3-NS5B regions of HCV type 1b translated from an Internal Ribosome Entry Site (IRES) from encephalomyocarditis virus (EMCV), preceded by a reporter portion (FfL-luciferase), and a selectable marker portion (neo^R, neomycine phosphotransferase). The construct is bordered by 5′ and 3′ NTRs (non-translated regions) from HCV type 1b. Continued culture of the replicon cells in the presence of G418 (neo^R) is dependent on the replication of the HCV RNA. The stably transfected replicon cells that express HCV RNA, which replicates autonomously and to high levels, encoding inter alia luciferase, are used for screening the antiviral compounds.
The replicon cells were plated in 384 well plates in the presence of the test and control compounds which were added in various concentrations. Following an incubation of three days, HCV replication was measured by assaying luciferase activity (using standard luciferase assay substrates and reagents and a Perkin Elmer ViewLux™ ultraHTS microplate imager). Replicon cells in the control cultures have high luciferase expression in the absence of any inhibitor. The inhibitory activity of the compound on luciferase activity was monitored on the Huh-Luc cells, enabling a doseresponse curve for each test compound.
A general note: A replicon is a self-replicating genome or part of one, used to study replication in cells.

[4] abbreviates: Huh-Luc cells, incubation of three days, luciferase activity.

The values below come from patent US8012939B2 (Tibotec Pharmaceuticals Ltd. Co, priority 2005, dated 2011).

As a reminder, the Ki is a dissociation constant, usually derived from enzyme kinetics or from competition with a known ligand. High values mean weaker binding, low ones tighter binding. Usually EC50 stands for the concentration that produces a half-maximal response.

Where two headings read alike, the source gives them in different places.

T1 sequence (P27958 1027-1657, one chain of several): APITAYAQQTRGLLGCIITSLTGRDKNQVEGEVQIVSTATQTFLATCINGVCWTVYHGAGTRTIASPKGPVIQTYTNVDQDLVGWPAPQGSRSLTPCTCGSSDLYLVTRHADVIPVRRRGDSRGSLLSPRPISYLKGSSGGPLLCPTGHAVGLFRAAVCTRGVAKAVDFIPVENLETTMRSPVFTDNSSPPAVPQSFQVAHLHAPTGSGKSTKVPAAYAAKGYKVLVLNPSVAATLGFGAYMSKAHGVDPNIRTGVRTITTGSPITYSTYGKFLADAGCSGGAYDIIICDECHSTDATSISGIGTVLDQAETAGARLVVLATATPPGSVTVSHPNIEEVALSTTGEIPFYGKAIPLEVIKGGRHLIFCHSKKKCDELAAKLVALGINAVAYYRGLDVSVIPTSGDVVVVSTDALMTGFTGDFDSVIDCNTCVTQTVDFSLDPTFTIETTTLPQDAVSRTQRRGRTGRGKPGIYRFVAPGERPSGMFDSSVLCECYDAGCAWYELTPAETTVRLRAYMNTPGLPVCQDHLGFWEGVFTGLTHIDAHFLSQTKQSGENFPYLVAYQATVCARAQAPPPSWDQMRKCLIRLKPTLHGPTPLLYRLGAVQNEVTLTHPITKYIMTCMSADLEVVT

For the molecule `CCOC(=O)C12CC1C=CCCCCN(C)C(=O)N1CC(OC(=O)c3ccc([N+](=O)[O-])cc3)CC1C(=O)N2` (stereo not shown), the ring closure, yield of all isomers in data set [1] (from C=CCCCCN(C)C(=O)N1CC(OC(=O)c2ccc([N+](=O)[O-])cc2)CC1C(=O)NC1(C(=O)OCC)CC1C=C, 1.64 mM, 20.0 h) amounted to 51%.

In data set [1] (from C=CCCCCN(C)C(=O)N1CC(Oc2nc(Cl)cc3cc(OC)ccc23)CC1C(=O)NC1(C(=O)OCC)CC1C=C, 2.17 mM, 20.0 h), `CCOC(=O)C12CC1C=CCCCCN(C)C(=O)N1CC(Oc3nc(Cl)cc4cc(OC)ccc34)CC1C(=O)N2` (stereo not shown) registered a ring closure, yield of all isomers of 58%. On to `CCOC(=O)C12CC1C=CCCCCN(C)C(=O)N1CC(Oc3ncc(Br)c4cc(OC)ccc34)CC1C(=O)N2` (stereo not shown), for which, in data set [1] (from C=CCCCCN(C)C(=O)N1CC(Oc2ncc(Br)c3cc(OC)ccc23)CC1C(=O)NC1(C(=O)OCC)CC1C=C, 1.55 mM, 20.0 h), the ring closure, yield of all isomers was determined as 38%. In the case of `COc1ccc2c(O[C@@H]3C[C@H]4C(=O)N[C@]5(C(=O)NS(=O)(=O)C6CC6)C[C@H]5/C=C\CCCCN(C)C(=O)N4C3)nc(-c3ccccc3)cc2c1` [Compound 56, N-[17-(3-phenyl-6-methoxyisoquinolin-1-yloxy)-13-methyl-2,14-dioxo-3,13,15-triaza-tricyclo[13.3.0.0^4,6]octadec-7-ene-4-carbonyl](cyclopropyl) sulfonamide], the Ki in data set [2] was 1.1 nM. The concentration for a half-maximal effect (EC50) in data set [3] turned out to be 1030 nM. `COc1ccc2c(O[C@@H]3C[C@H]4C(=O)N[C@]5(C(=O)NS(=O)(=O)C6CC6)C[C@H]5/C=C\CCCCN(C)C(=O)[C@@H]4C3)nc(-n3cccn3)cc2c1` [Compound 36, N-[17-[3-(pyrazol-1-yl)-6-methoxyisoquinolin-1-yloxy]-13-methyl-2,14-dioxo-3,13-diazatricyclo[13.3.0.0^4,6]octadec-7-ene-4-carbonyl]-(cyclopropyl) sulfonamide] came in with an inhibition constant Ki in data set [2] of 0.7 nM. The concentration for a half-maximal effect (EC50) in data set [3] (setting [4]) worked out at 72 nM. In the same order, the values of `COc1ccc2c(O[C@@H]3C[C@H]4C(=O)N[C@]5(C(=O)O)C[C@H]5/C=C\CCCCN(C)C(=O)N4C3)nc(Cl)cc2c1` [Compound 42, 17-(3-chloro-6-methoxyisoquinolin-1-yloxy)-13-methyl-2,14-dioxo-3,13,15-triaza-tricyclo[13.3.0.0^4,6]octadec-7-ene-4-carboxylic acid] are 620 nM and above 10000 nM. As to `COc1ccc2c(O[C@@H]3C[C@H]4C(=O)N[C@]5(C(=O)NS(=O)(=O)C6CC6)C[C@H]5/C=C\CCCCN(C)C(=O)N4C3)nc(-n3cccn3)cc2c1` [Compound 68, N-[17-(3-pyrazol-1-yl-6-methoxyisoquinolin-1-yloxy)-13-methyl-2,14-dioxo-3,13,15-triaza-tricyclo[13.3.0.0^4,6]octadec-7-ene-4-carbonyl](cyclopropyl)sulfonamide], the Ki in data set [2] is 2.5 nM. The EC50 in data set [3] (setting [4]) worked out at 165 nM. Take `COc1ccc2c(O[C@@H]3C[C@H]4C(=O)N[C@]5(C(=O)NS(=O)(=O)C6CC6)C[C@H]5/C=C\CCCCN(C)C(=O)N4C3)nccc2c1Br` [Compound 51, N-[17-(5-bromo-6-methoxyisoquinolin-1-yloxy)-13-methyl-2,14-dioxo-3,13,15-triaza-tricyclo[13.3.0.0^4,6]octadec-7-ene-4-carbonyl](cyclopropyl)sulfonamide]: in data set [2], affinity was put at a Ki of 1.7 nM. The concentration for a half-maximal effect (EC50) in data set [3] (setting [4]) came out at 58 nM. In data set [1] (from C=CCCCCN(C)C(=O)C1CC(Oc2nc(-c3nc(C4CC4)cs3)cc3cc(OC)ccc23)CC1C(=O)NC1(C(=O)OCC)CC1C=C, 0.8 mM, 12.0 h), `CCOC(=O)C12CC1C=CCCCCN(C)C(=O)C1CC(Oc3nc(-c4nc(C5CC5)cs4)cc4cc(OC)ccc34)CC1C(=O)N2` (stereo not shown) had a ring closure, yield of all isomers of 85%. Take `COc1ccc2c(O[C@@H]3C[C@H]4C(=O)N[C@]5(C(=O)O)C[C@H]5/C=C\CCCCN(C)C(=O)[C@@H]4C3)nc(-n3cccn3)cc2c1` [Compound 35, 17-[3-(pyrazol-1-yl)-6-methoxyisoquinolin-1-yloxy]-13-methyl-2,14-dioxo-3,13-diazatricyclo[13.3.0.0^4,6]octadec-7-ene-4-carboxylic acid]: the Ki in data set [2] is above 1000 nM. Further, the 50% effective concentration (EC50) in data set [3] came to 20900 nM.
